Test results taken from patent US11254690B2, “PTEFb inhibiting macrocyclic compounds” (BAYER AKTIENGESELLSCHAFT, priority 2017, dated 2022).
Read-outs that look alike come from different tables or passages of the source.

Tests used:
HeLa-MaTu-ADR cells = experiment: Proliferation assay, HeLa-MaTu-ADR; format: cell-based; conditions: Homo sapiens, 96 h; 4 days, crystal violet; read-out: Inhibition of HeLa-MaTu-ADR cell proliferation IC50
Method: (§1) Cultivated tumour cells (HeLa, human cervical tumour cells, ATCC CCL-2; NCI-H460, human non-small cell lung carcinoma cells, ATCC HTB-177; DU 145, hormone-independent human prostate carcinoma cells, ATCC HTB-81; HeLa-MaTu-ADR, multidrug-resistant human cervical carcinoma cells, EPO-GmbH Berlin; Caco-2, human colorectal carcinoma cells, ATCC HTB-37; B16F10, mouse melanoma cells, ATCC CRL-6475) were plated at a density of 5,000 cells/well (DU145, HeLa-MaTu-ADR), 3,000 cells/well (NCI-H460, HeLa), 1,500 cells/well (Caco-2), or 1,000 cells/well (B16F10) in a 96-well multititer plate in 200 μL of their respective growth medium supplemented 10% fetal calf serum. After 24 hours, the cells of one plate (zero-point plate) were stained with crystal violet (see below), while the medium of the other plates was supplemented with the test substances in various concentrations (0 μM, as well as in the range of 0.0001-10 μM; the final concentration of the solvent dimethyl sulfoxide was adjusted to 0.1%) using a Hewlett-Packard HP D300 Digital Dispenser. The cells were incubated for 4 days in the presence of test substances. Cell proliferation was determined by staining the cells with crystal violet: the cells were fixed by adding 20 μl/measuring point of an 11% glutaric aldehyde solution for 15 minutes at room temperature. After three washing cycles of the fixed cells with water, the plates were dried at room temperature. The cells were stained by adding 100 μl/measuring point of a 0.1% crystal violet solution (pH 3.0). After three washing cycles of the stained cells with water, the plates were dried at room temperature. The dye was dissolved by adding 100 μl/measuring point of a 10% acetic acid solution. The extinction was determined by photometry at a wavelength of 595 nm. The change of cell number, in percent, was calculated by normalization of the measured values to the extinction values of the zero-point plate (=0%) and the extinction of the untreated ([…]) cells (=100%). The IC50 values (inhibitory concentration at 50% of maximal effect) were determined by means of a 4 parameter fit. A2780 human ovarian carcinoma cells (ECACC #93112519) and non-adherent MOLM-13 human acute myeloid leukemia cells (DSMZ ACC 554) were seeded at a density of 3,000 cell/well (A2780) or 5,000 cells/well (MOLM-13) in a 96-well multititer plate in 150 μL of growth medium supplemented 10% fetal calf serum. After 24 hours, cell viability of one plate (zero-point plate) was determined with the Cell Titre-Glo Luminescent Cell Viability Assay (Promega), while the medium of the other plates was supplemented with the test substances in various concentrations (0 μM, as well as in the range of 0.0001-10 μM; the final concentration of the solvent dimethyl sulfoxide was adjusted to 0.1%) using a Hewlett-Packard HP D300 Digital Dispenser. Cell viability was assessed after 72-hour exposure with the Cell Titre-Glo Luminescent Cell Viability Assay (Promega). IC50 values (inhibitory concentration at 50% of maximal effect) were determined by means of a 4 parameter fit on measurement data which were normalized to vehicle (DMSO) treated cells (=100%) and measurement readings taken immediately before compound exposure (=0%).

NCI-H460 cells = experiment: Proliferation assay, NCI-H460; format: cell-based; conditions: Homo sapiens, NCI-H460, 96 h; 4 days, crystal violet; read-out: Inhibition of NCI-H460 cell proliferation IC50
Method: as §1

A2780 cells = experiment: Proliferation assay, A2780; format: cell-based, human; conditions: 72-hour exposure, Cell Titre-Glo, read-out: Inhibition of A2780 cell proliferation IC50
Method: as §1

| Structure (SMILES) | IC50 (HeLa-MaTu-ADR cells) [nM] | IC50 (NCI-H460 cells) [nM] | IC50 (A2780 cells; Homo sapiens, A2780, 72 h) [nM] | IC50 (A2780 cells) [nM] |
| --- | --- | --- | --- | --- |
| CS(=N)(=O)Cc1cc2cc(c1)OCCCCOc1cc(ccc1F)-c1nc(ncc1F)N2 (racemic) [Example 4, (rac)-3,20-difluoro-10-[(S-methylsulfonimidoyl)methyl]-13,18-dioxa-5,7,25-triazatetracyclo[17.3.1.1^2,6.1^8,12]pentacosa-1(23),2(25),3,5,8(24),9,11,19,21-nonaene] | 140 | 331 | 41 | – |
| CS(=N)(=O)Cc1cc2cc(c1)OCCCCOc1c(F)ccc(c1F)-c1nc(ncc1F)N2 (racemic) [Example 8, (rac)-3,20,23-trifluoro-10-[(S-methylsulfonimidoyl)methyl]-13,18-dioxa-5,7,25-triazatetracyclo[17.3.1.1^2,6.1^8,12]pentacosa-1(23),2(25),3,5,8(24),9,11,19,21-nonaene] | 179 | 217 | 68 | – |
| CS(=N)(=O)Cc1cc2cc(c1)OCCCOc1cc(ccc1F)-c1nc(ncc1F)N2 (racemic) [Example 10, (rac)-3,19-difluoro-10-[(S-methylsulfonimidoyl)methyl]-13,17-dioxa-5,7,24-triazatetracyclo[16.3.1.1^2,6.1^8,12]tetracosa-1(22),2(24),3,5,8(23),9,11,18,20-nonaene] | 155 | 238 | 48 | – |
| CC(C)(C)OC(=O)N=S(C)(=O)Cc1cc2cc(c1)OCCCCCOc1cc(ccc1F)-c1nc(ncc1F)N2 (racemic) [Example 5, (rac)-tert-butyl [{[3,21-difluoro-13,19-dioxa-5,7,26-triazatetracyclo[18.3.1.1^2,6.1^8,12]hexacosa-1(24),2(26),3,5,8(25),9,11,20,22-nonaen-10-yl]methyl}(methyl)oxido-λ^6-sulfanylidene]carbamate] | 1000 | 479 | > 100 | – |
| CC(C)(C)OC(=O)N=S(C)(=O)Cc1cc2cc(c1)OCCCCOc1cc(ccc1F)-c1nc(ncc1F)N2 (racemic) [Example 3, (rac)-tert-butyl [{[3,20-difluoro-13,18-dioxa-5,7,25-triazatetracyclo[17.3.1.1^2,6.1^8,12]pentacosa-1(23),2(25),3,5,8(24),9,11,19,21-nonaen-10-yl]methyl}(methyl)oxido-λ^6-sulfanylidene]carbamate] | 218 | 267 | 56 | – |
| CS(=N)(=O)Cc1cc2cc(c1)OCCCCCOc1cc(ccc1F)-c1nc(ncc1F)N2 (racemic) [Example 6, (rac)-3,21-difluoro-10-[(S-methylsulfonimidoyl)methyl]-13,19-dioxa-5,7,26-triazatetracyclo[18.3.1.1^2,6.1^8,12]hexacosa-1(24),2(26),3,5,8(25),9,11,20,22-nonaene] | 169 | 277 | 39 | – |
| CS(=N)(=O)Cc1cc2nc(c1)OCCCCOc1cc(ccc1F)-c1cc(ncc1F)N2 (racemic) [Example 2, (rac)-3,20-difluoro-10-[(S-methylsulfonimidoyl)methyl]-13,18-dioxa-5,7,24-triazatetracyclo[17.3.1.1^2,6.1^8,12]pentacosa-1(23),2(25),3,5,8(24),9,11,19,21-nonaene] | 78 | 157 | 9 | – |

Further lines, results first:

| IC50 (HeLa-MaTu-ADR cells) [nM] | IC50 (NCI-H460 cells) [nM] | IC50 (A2780 cells; Homo sapiens, A2780, 72 h) [nM] | IC50 (A2780 cells) [nM] | Structure (SMILES) |
| --- | --- | --- | --- | --- |
| – | – | – | 0.7 | CC1CCCCOc2cc(ccc2F)-c2cc(ncc2F)Nc2cc(CS(C)(=N)=O)cc(n2)O1 (single isomer, unassigned) [Example 22, 3,21-difluoro-14-methyl-10-[(S-methylsulfonimidoyl)methyl]-13,19-dioxa-5,7,25-triazatetracyclo[18.3.1.1^2,6.1^8,12]hexacosa-1(24),2(26),3,5,8(25),9,11,20,22-nonaene] |
| – | – | – | 27 | CC1CCCCOc2cc(ccc2F)-c2cc(ncc2F)Nc2cc(CS(C)(=N)=O)cc(n2)O1 (single isomer, unassigned) [Example 21, 3,21-difluoro-14-methyl-10-[(S-methylsulfonimidoyl)methyl]-13,19-dioxa-5,7,25-triazatetracyclo[18.3.1.1^2,6.1^8,12]hexacosa-1(24),2(26),3,5,8(25),9,11,20,22-nonaene] |
| – | – | – | 6 | CC1CCCOc2cc(ccc2F)-c2cc(ncc2F)Nc2cc(CS(C)(=N)=O)cc(n2)O1 (single isomer, unassigned) [Example 16, 3,20-difluoro-14-methyl-10-[(S-methylsulfonimidoyl)methyl]-13,18-dioxa-5,7,24-triazatetracyclo[17.3.1.1^2,6.1^8,12]pentacosa-1(23),2(25),3,5,8(24),9,11,19,21-nonaene] |
| – | – | – | 6 | CC1CCCOc2cc(ccc2F)-c2cc(ncc2F)Nc2cc(CS(C)(=N)=O)cc(n2)O1 (single isomer, unassigned) [Example 17, 3,20-difluoro-14-methyl-10-[(S-methylsulfonimidoyl)methyl]-13,18-dioxa-5,7,24-triazatetracyclo[17.3.1.1^2,6.1^8,12]pentacosa-1(23),2(25),3,5,8(24),9,11,19,21-nonaene] |
| – | – | 16 | – | CC1CCCOc2cc(ccc2F)-c2cc(ncc2F)Nc2cc(CS(C)(=O)=O)cc(n2)O1 (racemic) [Example 28, 3,20-difluoro-14-methyl-10-[(methylsulfonyl)methyl]-13,18-dioxa-5,7,24-triazatetracyclo[17.3.1.1^2,6.1^8,12]pentacosa-1(23),2(25),3,5,8(24),9,11,19,21-nonaene] |
